The values that follow come from patent publication US10829833B2, “Biological processing of scrap metal, household waste and/or industrial waste for the isolation of heavy metals” (B.R.A.I.N. Biotechnology Research and Information Network AG, priority 2015, dated 2020).

The structures appear in SMILES notation.

Holding throughout (assay): Microbial growth on agar plates with different concentrations of AgNO3 or HAuCl4
Holding throughout (type): cell-based
Set-up in all cases: key: x = growth; (x) = weak growth
What all share (settings): agar plate

One experiment relates to Bacillus sphaericus. The text has this: (§1) To investigate the tolerated concentration of silver and gold, the microorganisms were propagated in liquid medium and streaked on agar plates with different concentrations of AgNO3 or HAuCl4, respectively.
In the next experiment the test system is Xanthomonas campestris.
Description: as §1

Experiment [1] concerns Cupriavidus metallidurans.
Description: as §1

The next experiment relates to Escherichia coli.
Description: as §1

`O=[N+]([O-])[O-].[Ag+]` [AgNO3]: the “Microbial growth in dependence on AgNO3 concentration” value with Bacillus sphaericus (AgNO3 2 μM), with Bacillus sphaericus (AgNO3 10 μM), in the experiment with Bacillus sphaericus (AgNO3 20 μM), with Bacillus sphaericus (AgNO3 50 μM), in the experiment on Bacillus sphaericus (AgNO3 100 μM) and in the experiment on Bacillus sphaericus (AgNO3 150 μM) was “x” throughout. Moreover, the “Microbial growth in dependence on AgNO3 concentration” value (with Xanthomonas campestris (AgNO3 2 μM); in the experiment with Xanthomonas campestris (AgNO3 10 μM); with Xanthomonas campestris (AgNO3 20 μM); in the experiment with Xanthomonas campestris (AgNO3 50 μM); in the experiment on Xanthomonas campestris (AgNO3 100 μM); in experiment [1] (AgNO3 2 μM)) was “x” throughout. Also, the “Microbial growth in dependence on AgNO3 concentration” value is given as “x” in experiment [1] (AgNO3 10 μM); “x” in experiment [1] (AgNO3 20 μM); “x” in experiment [1] (AgNO3 50 μM); “x” in experiment [1] (AgNO3 100 μM); “x” in experiment [1] (AgNO3 150 μM); “(x)” in experiment [1] (AgNO3 200 μM). In addition, the “Microbial growth in dependence on AgNO3 concentration” value in the experiment with Escherichia coli (AgNO3 2 μM), in the experiment on Escherichia coli (AgNO3 10 μM), in the experiment on Escherichia coli (AgNO3 20 μM), in the experiment with Escherichia coli (AgNO3 50 μM) and in the experiment with Escherichia coli (AgNO3 100 μM) was “x” each time.

Consider `[Au+3].[Cl-].[Cl-].[Cl-].[Cl-].[H+]` [HAuCl4], for which the “Microbial growth in dependence on HAuCl4 concentration” value with Bacillus sphaericus (HAuCl4 2 μM), in the experiment on Bacillus sphaericus (HAuCl4 20 μM), in the experiment on Bacillus sphaericus (HAuCl4 100 μM), with Bacillus sphaericus (HAuCl4 200 μM), in the experiment with Xanthomonas campestris (HAuCl4 2 μM) and in the experiment on Xanthomonas campestris (HAuCl4 20 μM) was “x” each time. For the same molecule, the “Microbial growth in dependence on HAuCl4 concentration” value (in the experiment with Xanthomonas campestris (HAuCl4 100 μM); with Xanthomonas campestris (HAuCl4 200 μM); in the experiment on Xanthomonas campestris (HAuCl4 300 μM); in experiment [1] (HAuCl4 2 μM); in experiment [1] (HAuCl4 20 μM); in experiment [1] (HAuCl4 100 μM)) was “x” in each case. Besides, the “Microbial growth in dependence on HAuCl4 concentration” value (in experiment [1] (HAuCl4 200 μM); in experiment [1] (HAuCl4 300 μM); in experiment [1] (HAuCl4 400 μM); in experiment [1] (HAuCl4 500 μM); in the experiment on Escherichia coli (HAuCl4 2 μM); with Escherichia coli (HAuCl4 20 μM)) was “x” throughout. In addition, the “Microbial growth in dependence on HAuCl4 concentration” value with Escherichia coli (HAuCl4 100 μM), with Escherichia coli (HAuCl4 200 μM) and in the experiment with Escherichia coli (HAuCl4 300 μM) was “x” each time.
